Source: PubChem BioAssay (NCI)
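Cells were grown in 96-well plates and exposed to each compound for 48 hours at five concentrations; endpoints were interpolated linearly between bracketing concentrations, or set to the highest concentration if not reached. GI50 marks 50% less growth. TGI: total growth inhibition.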

Legend:
Assay in all cases: inhibition of tumour cell growth, NCI panel, 48 h
NCI-H460 lung = test system: NCI-H460 lung
NCI/ADR-RES ovarian = test system: NCI/ADR-RES ovarian
IGROV1 ovarian = test system: IGROV1 ovarian
HS 578T breast = test system: HS 578T breast
NCI-H522 lung = test system: NCI-H522 lung
MOLT-4 leukemia = test system: MOLT-4 leukemia
A549 NSCLC = test system: A549 NSCLC
HL-60(TB) leukemia = test system: HL-60(TB) leukemia
MDA-MB-435 = test system: MDA-MB-435
OVCAR-3 ovarian = test system: OVCAR-3 ovarian

Compound	TGI (NCI-H460 lung) [µM]	TGI (NCI/ADR-RES ovarian) [µM]	TGI (IGROV1 ovarian) [µM]	TGI (HS 578T breast) [µM]	TGI (NCI-H522 lung) [µM]	TGI (MOLT-4 leukemia) [µM]	TGI (A549 NSCLC) [µM]	TGI (HL-60(TB) leukemia) [µM]	TGI (MDA-MB-435) [µM]	TGI (OVCAR-3 ovarian) [µM]	GI50 (NCI-H460 lung) [µM]	GI50 (IGROV1 ovarian) [µM]	GI50 (OVCAR-3 ovarian) [µM]	GI50 (MOLT-4 leukemia) [µM]	GI50 (A549 NSCLC) [µM]	GI50 (HL-60(TB) leukemia) [µM]	GI50 (NCI/ADR-RES ovarian) [µM]	GI50 (HS 578T breast) [µM]	GI50 (MDA-MB-435) [µM]	GI50 (NCI-H522 lung) [µM]
CC1(C)CCCC(C)(C2CCC3(C)C2C(O)CC2C4(C)CCC(O)C(C)(C)C4C(O)CC23C)O1 (stereo not drawn)	25.3	37.4	38.5	30.8	29.8	16.3	24.4	5.44	30.3	–	–	–	–	–	–	–	–	–	–	–
Cc1cc(=O)n2c3c(c4c(cc13)c(CO)cc(=O)n4C)OC2	> 100	–	> 100	–	17.7	–	> 100	–	–	40.1	–	–	–	–	–	–	–	–	–	–
N.N.O=P([O-])([O-])CN(CCN(CP(=O)([O-])[O-])CP(=O)([O-])[O-])CP(=O)([O-])[O-].[Pt+2]	> 100	–	> 100	–	–	> 100	> 100	> 100	–	> 100	> 100	> 100	> 100	> 100	> 100	> 100	–	–	–	–
O=C(/C=C/c1ccccc1Cl)c1cccc2ccccc12	19.7	–	29.6	–	18.6	5.59	34	37.7	–	15	–	–	–	–	–	–	–	–	–	–
O=[N+]([O-])c1ccc(Sc2nc(Cl)nc(NC3CCCC3)n2)cc1	> 10	> 10	> 10	> 10	–	> 10	–	> 10	> 10	> 10	> 10	2.84	> 10	> 10	–	> 10	> 10	> 10	> 10	–
CCOC(=O)C1=C(C)N(Cc2ccccc2)C(=O)C1CC#N (stereo not drawn)	> 100	–	> 100	–	–	> 100	> 100	94.7	–	> 100	–	–	–	–	–	–	–	–	–	–
O=C1C(Nc2ccc(Br)cc2)=C(I)C(=O)c2ncccc21	5.01	3.32	1.36	26	–	3.48	8.18	2.07	1.72	0.524	1.42	0.678	0.154	0.912	2.24	0.96	1.14	1.59	0.911	–
CO[C@]12C=C/C(=C(/C(=O)OCc3cccnc3)C(=O)CCCCCCCC[C@@]3(OC)C=C/C(=C(/C(=O)OCc4cccnc4)C(=O)CCCCCCCC1)O3)O2	3.16	> 50	14.7	> 50	2.85	–	9.2	4.25	–	3.84	1.27	1.75	1.16	–	1.65	1.37	1.56	2.08	–	1.05
CC(C)=CCC1=C(OCC(=O)O)C(=O)c2ccccc2C1=O	> 100	> 100	> 100	62.6	57.4	> 100	> 100	36.1	29	–	–	–	–	–	–	–	–	–	–	–
C[C@]12CCC[C@H](O)[C@H]1C[C@H](CO)CC2	> 100	–	> 100	–	> 100	> 100	> 100	> 100	–	> 100	–	–	–	–	–	–	–	–	–	–
O=C(NNc1ccc(F)cc1)C1CCC(CNS(=O)(=O)c2ccc(Cl)c(Cl)c2)CC1 (stereo not drawn)	> 50	31.5	> 50	42.4	> 50	–	4.93	9.57	35.1	13.9	3.18	6.79	2.11	–	0.842	1.82	8.79	10.5	2.01	22.8
COC(=O)C[CH2][Ge]([CH3])([CH3])[S]c1ccccc1	30.6	–	4.72	–	23.2	33.5	> 100	31.4	–	> 100	16.9	1.25	29.9	8.31	30.6	12.2	–	–	–	10.8
Nc1ccccc1NC(=O)c1ccc(CN2CCC/C(=C\c3ccccn3)C2=O)cc1	> 100	> 100	> 100	–	3.76	> 100	> 100	6.48	1.77	> 100	1.65	1.1	2.37	1.26	2.41	0.467	1.33	–	0.357	0.51
NC1=NN(c2ccccc2)C(=O)C1/C(=N\NC(=O)c1cc2ccccc2cc1O)C(=O)Nc1cccc(C(F)(F)F)c1 (stereo not drawn)	> 100	–	> 100	–	–	65.9	> 100	27.6	–	> 100	–	–	–	–	–	–	–	–	–	–
COc1ccc2c(c1)[n+]([O-])c(-c1ccc(Br)cc1)c(N)[n+]2[O-]	> 100	–	> 100	–	29.7	> 100	> 100	> 100	–	> 100	–	–	–	–	–	–	–	–	–	–
CC1(c2cccc(N)c2)C2C(=O)NC(=O)C1C(=O)NC2=O (stereo not drawn)	> 100	–	> 100	–	46.3	47.6	> 100	43.2	–	57.1	–	–	–	–	–	–	–	–	–	–
N#Cc1cc([N+](=O)[O-])ccc1NC(=O)C(F)(F)F	> 57.4	–	> 100	–	> 100	> 100	> 100	> 100	–	> 100	–	–	–	–	–	–	–	–	–	–
C/C=C(/CCC1NCCC2c3ccccc3NC12)[Si](C)(C)C (stereo not drawn)	12.4	–	25.6	–	30.2	16.4	29.2	4.36	–	24	–	–	–	–	–	–	–	–	–	–
COc1cccc(NC(=O)C(C)(C)C)c1SSc1c(NC(=O)C(C)(C)C)cccc1OC	> 100	–	> 100	–	27.2	> 70.6	> 100	> 73.1	–	> 100	–	–	–	–	–	–	–	–	–	–
C1COCCOCCOCCOCCOCCO1.[Cl][Sn]([Cl])([c]1ccccc1)[c]1ccccc1	30.5	–	23.7	–	2.05	14.5	34.4	7.55	–	15.5	15.1	11.2	4.88	3.21	20.2	2.64	–	–	–	0.766

Compound	TGI (NCI-H460 lung) [µM]	TGI (NCI/ADR-RES ovarian) [µM]	TGI (IGROV1 ovarian) [µM]	TGI (HS 578T breast) [µM]	TGI (NCI-H522 lung) [µM]	TGI (MOLT-4 leukemia) [µM]	TGI (A549 NSCLC) [µM]	TGI (HL-60(TB) leukemia) [µM]	TGI (MDA-MB-435) [µM]	TGI (OVCAR-3 ovarian) [µM]	GI50 (NCI-H460 lung) [µM]	GI50 (IGROV1 ovarian) [µM]	GI50 (OVCAR-3 ovarian) [µM]	GI50 (MOLT-4 leukemia) [µM]	GI50 (A549 NSCLC) [µM]	GI50 (HL-60(TB) leukemia) [µM]	GI50 (NCI/ADR-RES ovarian) [µM]	GI50 (HS 578T breast) [µM]	GI50 (MDA-MB-435) [µM]	GI50 (NCI-H522 lung) [µM]
Cn1c(=O)c2ccc(-c3ccc(Br)cc3)nc2n(C)c1=O	> 100	–	> 100	–	> 100	> 100	> 100	> 100	–	> 100	–	–	–	–	–	–	–	–	–	–
NC(=O)c1ncn(CCN2CCN(C(=O)NCCCCCCNC(=O)N3CCN(CCn4cnc(C(N)=O)c4N)CC3)CC2)c1N	> 100	–	> 100	–	–	> 100	> 100	> 100	–	> 100	–	–	–	–	–	–	–	–	–	–
O=S1(=O)NC2CCC3NS(=O)(=O)NC4CCC(N1)N4S(=O)(=O)N23 (stereo not drawn)	> 100	> 100	> 100	> 100	> 100	–	> 100	> 100	> 100	> 100	–	–	–	–	–	–	–	–	–	–
CSCC[C@H](NC(=O)[C@H](CC(C)C)NC(=O)[C@@H](Cc1ccccc1)NC(=O)CNC(=O)[C@@H](NC(=O)[C@H](C)NC(=O)[C@H](Cc1c[nH]c2ccccc12)NC(=O)[C@H](CCC(N)=O)NC(=O)[C@H](N)CC(N)=O)C(C)C)C(N)=O	> 12.5	> 12.5	> 12.5	> 12.5	–	> 12.5	> 12.5	> 12.5	> 12.5	> 12.5	–	–	–	–	–	–	–	–	–	–
COC(=O)N/N=C(\C(=O)Nc1cccc([N+](=O)[O-])c1)c1nc2ccc([N+](=O)[O-])cc2[nH]c1=O	> 100	–	> 100	–	96.6	> 100	> 100	> 100	–	> 100	–	–	–	–	–	–	–	–	–	–
Cc1ccc(NC(=O)CC/C(CC(=O)C(C)(C)C)=N/NC(=O)C[N+](C)(C)C)cc1C	> 100	–	> 100	–	–	> 100	59.4	> 100	–	> 100	–	–	–	–	–	–	–	–	–	–
CSc1nc2c(nc(N)n2C2OC(COC(C)=O)C(OC(C)=O)C(OC(C)=O)C2OC(C)=O)c(=O)n1C (stereo not drawn)	> 100	–	> 100	–	–	> 100	> 100	> 100	–	> 100	–	–	–	–	–	–	–	–	–	–
NCCCn1c2c(c3ccc([N+](=O)[O-])cc3c1=O)C(=O)c1cc(-c3ccccc3)ccc1-2	1.38	3.76	–	–	0.467	0.595	0.552	1.3	3.11	3.1	0.34	–	1.65	0.235	0.237	0.5	1.84	–	1.65	0.22
c1ccc(CN2CCC3(CC2)SSC2(CCN(Cc4ccccc4)CC2)SS3)cc1	> 100	> 100	> 100	> 100	> 100	> 100	> 100	–	> 100	> 100	–	–	–	–	–	–	–	–	–	–
CC(=O)[CH-]C(=O)c1ccccc1.CC(=O)[CH-]C(=O)c1ccccc1.CC1(C)OCC(C2OC3OC(C)(C)OC3C2[O-])O1.CC1(C)OCC(C2OC3OC(C)(C)OC3C2[O-])O1.[Ti+4] (stereo not drawn)	28.4	–	48.8	–	–	> 100	38	–	–	–	11.3	21.6	–	7.39	15.3	–	–	–	–	–
COC(=O)C1=CC2CC1C(S(=O)(=O)c1ccccc1)C2S(=O)(=O)c1ccccc1 (stereo not drawn)	51.5	–	98.9	–	–	19.6	69.3	7.29	–	21.2	–	–	–	–	–	–	–	–	–	–
O=c1c2c(c3ccccc3n1-c1ccccc1)NC(=S)NC2c1ccc(Cl)cc1 (stereo not drawn)	6.47	> 100	27.2	> 100	–	> 100	> 100	45	31	15.6	1.16	4.57	2.86	4.17	4.25	3.6	10.1	1.85	3.27	–
CC(=O)[CH-]C(=O)c1ccccc1.CC(=O)[CH-]C(=O)c1ccccc1.CC[C@H](/C=C/C(C)[C@H]1CCC2[C@@H]3CC=C4C[C@@H]([O-])CC[C@]4(C)C3CC[C@@]21C)C(C)C.CC[O-].[Ti+4] (stereo partly drawn)	> 100	–	> 100	–	> 100	> 100	> 100	> 100	–	> 100	> 100	> 100	> 100	> 100	> 100	> 100	–	–	–	44.8
O=C(CC1(O)C(=O)Nc2ccccc21)c1ccc(F)cc1 (stereo not drawn)	> 100	–	> 100	–	> 100	> 100	> 100	> 100	–	> 100	–	–	–	–	–	–	–	–	–	–
COC(=O)c1ccc2c(c1)C(=O)c1c-2n(C)c(=O)c2cc(OC)c(OC)cc12	> 50	> 50	> 50	> 50	> 50	> 50	> 50	–	> 50	> 50	> 50	11.8	44.6	> 50	> 50	–	> 50	> 50	> 50	> 50
C/C(=N\NS(=O)(=O)c1ccc(C)cc1)c1cc2ccccc2n1C	> 100	–	> 100	–	> 100	> 100	> 100	> 100	–	–	–	–	–	–	–	–	–	–	–	–
CN(C)CCC(CCN(C)C)=NOC(=O)c1ccccc1	> 100	–	> 100	–	> 100	> 100	> 100	> 100	–	> 100	–	–	–	–	–	–	–	–	–	–
C[C@]12CC[C@H]3[C@@H](CCC4=CC(=O)CC[C@@]43C)[C@@H]1CC[C@@H]2C(=O)COS(=O)(=O)c1ccc(Br)cc1	22.2	> 100	3.28	73.6	2.97	–	44.6	21.9	32.8	28	–	–	–	–	–	–	–	–	–	–
Cn1cc(-c2csc(-c3cn(CCCCN4CCCCC4)c4ccc(F)cc34)n2)c2cccnc21	3.52	–	–	53.8	–	–	3.04	–	2.84	3.17	1.9	–	1.77	–	1.67	–	–	12.4	1.52	–
